According to patent publication US20210275686A1, “BINDER/ACTIVE AGENT CONJUGATES DIRECTED AGAINST CXCR5, HAVING ENZYMATICALLY CLEAVABLE LINKERS AND IMPROVED ACTIVITY PROFILE” (BAYER AKTIENGESELLSCHAFT, priority 2018, published 2021):

Experiments:
[1] = test system: Rec-1: human mantle cell lymphoma cells; experiment: Cytotoxic activity, CTG assay, Rec-1; assay type: cell-based; conditions: Rec1, metabolites
Method: (§1) The culturing of the cells is performed according to the standard method, as specified at the American Tissue Culture Collection (ATCC) or the Leibniz-Institut DSMZ-Deutsche Sammlung von Mikroorganismen and Zellkulturen GmbH (DSMZ) for the respective cell lines.
The cells were cultured using the standard method, with the growth media specified under C-1. To perform the test, the suspended cells were counted and seeded in a 96-well culture plate with a white background (Perkin Elmer, NO 10775584) (at 75 μL/well; the resulting cell numbers per well are: Rec-1: 3000 cells/well, HBL-1 and Oci-Ly-1: 6000 cells/well) and incubated in an incubator at 37° C. and 5% carbon dioxide. […] In a parallel plate, the cell vitality was determined at the beginning of the active agent treatment (day 0) with the Cell Titer Glow (CTG) Luminescent Cell Viability Assay (Promega #G7573 and #G7571). For this purpose, 100 μL of the substrate were added per cell batch; then the plates were covered with aluminum foil, shaken for 2 minutes at 180 rpm with the plate shaker, allowed to stand for 8 minutes on the laboratory bench and then measured with a luminometer (Victor X2, Perkin Elmer). The substrate detected the ATP content in the living cells, generating a luminescence signal whose height is directly proportional to the vitality of the cells. […]

[2] = test system: Rec-1: human mantle cell lymphoma cells; experiment: Cytotoxic activity, MTT assay, Rec-1; assay type: cell-based; conditions: Rec1, metabolites, 96 h
Method: as §1
(§2) The culturing of the cells was performed according to the standard method with the growth media specified under C-1. For execution, the cells were separated with a solution of Accutase in PBS (Biochrom AG #L2143), pelleted, resuspended in culture medium, counted and seeded on a 96-well culture plate with a white background (Costar #3610) (NCI H292: 2500 cells/well; in 100 μL total volume). Then the cells were incubated in an incubator at 37° C. and 5% carbon dioxide. After 48 h a change of medium was performed. […] The cells in the suspension were counted and seeded into a 96-well culture plate with white background (Costar #3610) (#3610) (Rec-1: 3000 cells/well at a total volume of 100 μL). […] After 96 h the cell proliferation was detected using the MTT assay (ATCC, Manassas, Va., USA, Catalog No. 30-1010K). […] The color formed was detected at 570 nm (Infinite M1000 pro, Tecan). Based on the measured data the IC50 of the growth inhibition was calculated using the DRC (dose-response curve). […]

[3] = test system: NCI-H292: human mucoepidermoid lung cancer cells; experiment: Cytotoxic activity, MTT assay, NCI-H292; assay type: cell-based; conditions: metabolites, 96 h
Method: as §1, §2

[4] = target: T1, human kinesin spindle protein KSP/Eg5 (Homo sapiens, UniProt P52732); experiment: Inhibition of kinesin spindle protein KSP/Eg5 (ATPase, malachite green); assay type: biochemical; conditions: 10 nM KSP motor domain, microtubules, 500 μM ATP, 2 h RT
T1 construct: The motor domain of the human kinesin spindle protein KSP/Eg5; purchased tebu-bio/Cytoskeleton Inc 027EG01-XL
T1 sequence (P52732 18-359 limits assumed): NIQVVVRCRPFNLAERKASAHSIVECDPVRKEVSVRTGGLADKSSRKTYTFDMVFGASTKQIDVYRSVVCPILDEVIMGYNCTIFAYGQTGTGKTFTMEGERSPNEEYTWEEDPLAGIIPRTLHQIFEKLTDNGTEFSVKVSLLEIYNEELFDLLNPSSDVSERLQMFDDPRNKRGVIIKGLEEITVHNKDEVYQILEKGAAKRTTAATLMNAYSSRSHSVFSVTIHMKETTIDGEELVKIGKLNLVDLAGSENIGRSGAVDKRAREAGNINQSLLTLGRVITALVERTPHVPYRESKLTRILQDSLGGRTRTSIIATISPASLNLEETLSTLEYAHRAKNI
Method: The motor domain of the human kinesin spindle protein KSP/Eg5 (tebu-bio/Cytoskeleton Inc, No. 027EG01-XL) was incubated in a concentration of 10 nM with microtubules (bovine or porcine, tebu-bio/Cytoskeleton Inc) stabilized with 50 μg/ml taxol (Sigma No. T7191-5MG) for 5 min at RT in 15 mM PIPES, pH 6.8 (5 mM MgCl2 and 10 mM DTT, Sigma). The freshly prepared mixture was aliquoted into a 384 MTP (from Corning). This was followed by the addition of the inhibitors to be investigated at concentrations from 1.0×10^−6 M to 1.0×10^−13 M and ATP (final concentration 500 μM; Sigma). The mixture was incubated at RT for 2 h. The ATPase activity was determined by detection of the inorganic phosphate produced with malachite green (Biomol). Addition of the reagent was followed by incubation for 50 min at RT before the absorption was detected at a wavelength of 620 nm. Monastrol (Sigma, M8515-1 mg) and ispinesib (AdooQ Bioscience A10486) were used as positive controls. The individual data for the dose-efficacy curve are from eight-fold determinations. The IC50 values are mean values from two independent experiments.

CC(C)(C)[C@H](c1cc(-c2cc(F)ccc2F)cn1Cc1ccccc1)N(CCCN)C(=O)CO [Reference Example R1M, N-(3-Aminopropyl)-N-{(IR)-1-[1-benzyl-4-(2,5-difluorophenyl)-IH-pyrrol-2-yl]-2,2-dimethylpropyl}-2-hydroxyacetamide, reference compound]
IC50 [1]: 0.205 nM
IC50 [2]: 0.293 nM
IC50 [3]: 0.27 nM
IC50 [4]: 1.09 nM
